Measured values taken from ChEMBL document CHEMBL1139605, “Novel ketal ligands for the glucocorticoid receptor: in vitro and in vivo activity” (Bioorg Med Chem Lett, 2005).
pEC50, pIC50: −log10 of the molar value.

Columns and labels:
Mus musculus = species on record: Mus musculus; assay: Effective concentration required for inhibition of interleukin-6 in mouse thioglycolate-elicited peritoneal exudate cell line using 57% radiolabeled Dexamethasone; type: functional
A549 = assay: Effective concentration for inhibition of interleukin-6 in human A549 lung carcinoma cell line using 47% radiolabeled Dexamethasone; type: functional, cell-based
Glucocorticoid receptor = target: T1, Glucocorticoid receptor (Homo sapiens, UniProt P04150); assay: Inhibition of human glucocorticoid receptor alpha isoform
T1 sequence (P04150 whole entry): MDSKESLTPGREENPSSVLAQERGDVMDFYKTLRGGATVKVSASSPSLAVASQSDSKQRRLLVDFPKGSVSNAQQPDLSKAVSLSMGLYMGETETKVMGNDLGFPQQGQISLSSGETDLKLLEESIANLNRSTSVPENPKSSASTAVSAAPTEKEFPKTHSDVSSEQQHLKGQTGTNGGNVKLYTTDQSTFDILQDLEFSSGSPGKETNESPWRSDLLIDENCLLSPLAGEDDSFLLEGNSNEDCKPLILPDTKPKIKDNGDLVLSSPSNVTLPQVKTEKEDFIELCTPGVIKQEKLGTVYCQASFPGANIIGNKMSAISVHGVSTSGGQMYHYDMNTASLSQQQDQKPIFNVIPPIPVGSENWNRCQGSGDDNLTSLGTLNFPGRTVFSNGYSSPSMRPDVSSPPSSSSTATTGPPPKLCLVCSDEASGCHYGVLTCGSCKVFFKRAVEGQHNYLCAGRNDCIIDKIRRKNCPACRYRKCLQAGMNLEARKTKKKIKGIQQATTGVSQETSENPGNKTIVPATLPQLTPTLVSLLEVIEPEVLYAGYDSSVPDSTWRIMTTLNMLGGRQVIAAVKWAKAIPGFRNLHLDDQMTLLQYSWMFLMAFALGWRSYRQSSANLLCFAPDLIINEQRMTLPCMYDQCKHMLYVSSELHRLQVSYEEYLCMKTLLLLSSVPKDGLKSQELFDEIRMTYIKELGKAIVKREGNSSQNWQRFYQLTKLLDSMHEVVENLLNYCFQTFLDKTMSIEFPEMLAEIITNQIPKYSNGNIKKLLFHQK

pEC50 (Mus musculus): 6.74
pEC50 (A549): 7.60
pIC50 (Glucocorticoid receptor): 8.25
SMILES: C=C[C@H]1CO[C@]2(CCC3=Cc4c(cnn4-c4ccc(F)cc4)C[C@@]32C)O1
